27 compounds from patent publication US20040138199A1, “Benzoxazines and derivatives thereof as therapeutic agents” (priority 2002, published 2004) can be followed below.

This assay concerns the target T1, p101/p110γ protein (PI3Kγ) (Homo sapiens, UniProt P48736).
T1 construct: HA; made in house; host or cells: Spodoptera frugiperda (Sf9) cells, baculovirus coinfection
Briefly: PI3Kγ In Vitro Kinase Assay. Format: biochemical. The settings on record: purified recombinant p101/p110γ with G protein β1/γ2 subunits; 20 μM ATP, 25 μM PIP2; 20 minutes at room temperature; radioactive PIP3 readout. The procedure:
Spodtera frugiperda cells, grown in ESF921 media, were coinfected with baculovirus expressing a glu-tagged […] and baculovirus expressing an HA-tagged p110γ, at a 3:1 ratio of p110 baculovirus to p110γ baculovirus. Sf9 cells were grown to 1×10^7 total cells/mL in 10L bioreactors and harvested 48-72 hours post infection. Samples of infected cells were then tested for expression of p101/p110γ PI3 kinase by immunoprecipitation and Western Blot analysis methods (see below).
To purify PI3Kγ, 4 volumes of room temperature hypotonic lysis buffer (1 mM MgCl2, 1 mM DTT, 5 mM EGTA, 1 mM Pefabloc, 0.5 μM aprotinin, […], 2 μM pepstatin, 5 μM E64, pH 8) per gram of cell paste, was poured onto frozen cell pellets with stirring, then lysed in a nitrogen “bomb” at 400 psi (599HC T316, Parr Instrument Co, Moline, Ill.). NaCl was added to 150 mM, and sodium cholate was added to 1% and mixed for another 45 minutes. The lysates were clarified by centrifugation for 25 minutes at 14,000 rpm. The lysates were then loaded over anti-glu-linked Protein-G Sepaharose beads (Covance Research Products, Richmond, Calif.) using 20 mL resin/50 g cell paste. The column was washed with 15 volumes of wash buffer (1 mM DTT, 0.2 mM EGTA, 1 mM Pefabloc, 0.5 μM aprotinin, 5 μM leupeptin, 2 μM pepstatin, 5 μM E64, 150 mM NaCl, 1% sodium cholate, pH 8). PI3Kγ was eluted with 6 column volumes of wash buffer that contain 100 μg/mL of a peptide that competes for binding of the glu tag. The column fractions with the eluted protein (determined by taking OD280 readings) were collected and dialyzed in 0.2 mM EGTA, 1 mM DTT, 1 mM Pefabloc, 5 μM leupeptin, 0.5% sodium cholate, 150 mM NaCl, and 50% glycerol, pH 8. The fractions were stored at −80° C. until further use.
Spodtera frugiperda cells were coinfected with baculovirus expressing a glu-tagged G protein β1 and baculovirus expressing a […] at a 1:1 ratio of glu-tagged G protein β1 baculovirus to G protein β2 baculovirus. Sf9 cells are grown in 10 L bioreactors and harvested 48-72 hours post infection. Samples of infected cells were tested for G protein β1/β2 expression by Western Blot analysis, as described below. Cell lysates were homogenized and loaded onto a column of glu-tagged beads as in Biological Example 1 and competed off the column with a glu peptide as described in Biological Example 1.
The inhibitory properties of the compounds in Table 1 were assayed in an in vitro PI3K assay. In a 96-well polypropylene plate, each well was spotted with 2 μL of 50 times the desired final concentration of compound in DMSO. Purified recombinant p101/p110γ protein (0.03 μg; ˜2.7 nM) and G protein β1/γ2 subunits (0.09 μg; −57.7 nM) for each reaction was combined in the assay buffer (30 mM HEPES, 100 mM NaCl, 1 mM EGTA, and 1 mM DTT). ATP and [γ-^32P-ATP] (0.09 μCi) were added to this mixture so that the final ATP concentration in the reaction was 20 μM. Lipid micelles were formed by sonicating phosphatidylinositol-4,5-diphosphate (PIP2), phosphatidylethanolamine (PE), and Na-cholate in the assay buffer for 10 minutes, adding MgCL2 and incubating on ice for 20 minutes, for final concentrations of 25 μM PIP2, 300 μM PE, 0.02% Na-cholate, and 10 mM MgCl2 in the reaction. The reactions were started by adding equal volumes lipid and enzyme mixture in a total volume of 50 μL, allowed to run for 20 minutes at room temperature, and stopped with 100 μL 75 mM H3PO4. The lipid product was transferred to a glass fiber filter plate and washed with 75 mM H3PO4 several times. The presence of radioactive lipid product (PIP3) was measured by adding Wallac Optiphase mix to each well and counting in a Wallac 1450 Trilux plate reader (PerkinElmer Life Sciences Inc., Boston, Mass. 02118). The IC50 for each compound tested is reported in μM in Table 1: […]

T1 sequence (P48736 whole entry, species assumed): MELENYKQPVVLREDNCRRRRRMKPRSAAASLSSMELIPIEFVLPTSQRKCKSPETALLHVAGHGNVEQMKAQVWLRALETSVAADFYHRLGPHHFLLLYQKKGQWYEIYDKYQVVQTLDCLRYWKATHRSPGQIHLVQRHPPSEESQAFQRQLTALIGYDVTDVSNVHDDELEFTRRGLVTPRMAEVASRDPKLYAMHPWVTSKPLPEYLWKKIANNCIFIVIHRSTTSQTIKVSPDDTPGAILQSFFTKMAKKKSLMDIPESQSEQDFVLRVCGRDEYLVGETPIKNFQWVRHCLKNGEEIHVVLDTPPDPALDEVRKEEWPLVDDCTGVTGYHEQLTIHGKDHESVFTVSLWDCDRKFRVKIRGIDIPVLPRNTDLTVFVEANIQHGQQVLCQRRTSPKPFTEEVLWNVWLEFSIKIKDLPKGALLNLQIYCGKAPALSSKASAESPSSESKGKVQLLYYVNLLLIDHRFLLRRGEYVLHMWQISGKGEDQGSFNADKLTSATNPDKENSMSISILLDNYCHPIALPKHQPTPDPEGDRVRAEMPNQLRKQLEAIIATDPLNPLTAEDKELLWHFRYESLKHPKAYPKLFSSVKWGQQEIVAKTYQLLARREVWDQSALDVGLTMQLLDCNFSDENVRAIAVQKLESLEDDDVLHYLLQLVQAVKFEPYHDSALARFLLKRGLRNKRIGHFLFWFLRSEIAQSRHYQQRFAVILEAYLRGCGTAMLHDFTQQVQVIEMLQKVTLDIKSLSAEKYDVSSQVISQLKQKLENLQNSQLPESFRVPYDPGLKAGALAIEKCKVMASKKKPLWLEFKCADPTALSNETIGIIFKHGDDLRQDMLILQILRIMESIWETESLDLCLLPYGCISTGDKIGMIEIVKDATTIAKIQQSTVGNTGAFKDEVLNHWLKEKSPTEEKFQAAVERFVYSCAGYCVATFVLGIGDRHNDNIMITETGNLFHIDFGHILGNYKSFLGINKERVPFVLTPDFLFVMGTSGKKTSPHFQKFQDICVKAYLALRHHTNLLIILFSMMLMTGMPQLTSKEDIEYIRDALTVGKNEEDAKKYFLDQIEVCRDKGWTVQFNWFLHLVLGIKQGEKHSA
T1 sequence (Q8WYR1 whole entry partner, species assumed): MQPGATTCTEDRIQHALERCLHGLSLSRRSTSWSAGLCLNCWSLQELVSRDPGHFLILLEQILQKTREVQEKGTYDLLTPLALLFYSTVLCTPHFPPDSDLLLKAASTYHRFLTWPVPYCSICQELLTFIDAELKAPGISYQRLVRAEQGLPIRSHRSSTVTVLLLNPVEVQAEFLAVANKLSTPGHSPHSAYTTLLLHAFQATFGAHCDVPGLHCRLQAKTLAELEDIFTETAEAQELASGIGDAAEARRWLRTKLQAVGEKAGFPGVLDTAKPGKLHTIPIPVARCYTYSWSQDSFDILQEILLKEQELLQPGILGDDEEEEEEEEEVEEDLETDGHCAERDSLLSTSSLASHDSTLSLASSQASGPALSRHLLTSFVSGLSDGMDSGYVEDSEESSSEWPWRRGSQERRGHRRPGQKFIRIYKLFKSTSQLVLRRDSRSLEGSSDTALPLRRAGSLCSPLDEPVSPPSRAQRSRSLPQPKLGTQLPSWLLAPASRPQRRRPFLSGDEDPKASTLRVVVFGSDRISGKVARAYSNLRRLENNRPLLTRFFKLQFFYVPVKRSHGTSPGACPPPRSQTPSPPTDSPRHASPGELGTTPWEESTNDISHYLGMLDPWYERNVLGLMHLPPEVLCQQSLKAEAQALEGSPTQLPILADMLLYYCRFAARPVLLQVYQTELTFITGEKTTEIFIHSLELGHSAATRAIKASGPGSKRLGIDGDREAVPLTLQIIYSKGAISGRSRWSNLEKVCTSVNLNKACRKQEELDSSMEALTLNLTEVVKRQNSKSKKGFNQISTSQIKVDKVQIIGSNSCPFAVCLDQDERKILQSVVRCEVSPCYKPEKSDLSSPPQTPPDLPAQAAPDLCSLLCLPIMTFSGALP

Take `O=C1NC(=S)SC1=Cc1ccc2c(c1)N(C(=O)c1cccnc1)CCO2` [Example 13]: the half-maximal inhibitory concentration (IC50) worked out at 0.41 µM.
On to `COc1cc(OC)cc(C(=O)N2CCOc3ccc(C=C4SC(=S)NC4=O)cc32)c1` [Example 14], for which the IC50 amounted to 1.13 µM.
In the case of `O=C1NC(=S)SC1=Cc1ccc2c(c1)N(C(=O)Cc1ccc(Cl)c(Cl)c1)CCO2` [Example 15] it was 0.0073 µM; in that of `O=C1NC(=S)SC1=Cc1ccc2c(c1)N(CCc1ccccc1)CCCO2` [Example 16, 5-(9-Phenethyl-6,7,8,9-tetrahydro-5-oxa-9-aza-benzocyclohepten-2-ylmethylene)-2-thioxo-thiazolidin-4-one], 0.08 µM; in that of `O=C1NC(=S)SC1=Cc1ccc2c(c1)N(C(=O)Oc1ccccc1)CCO2` [Example 17, 6-(4-Oxo-2-thioxo-thiazolidin-5-ylidenemethyl)-2,3-dihydro-1,4-benzoxazine-4-carboxylic acid phenyl ester], 0.003 µM.
On to `Cc1ccc(OC(=O)N2CCOc3ccc(C=C4SC(=S)NC4=O)cc32)cc1` [Example 18, 6-(4-Oxo-2-thioxo-thiazolidin-5-ylidenemethyl)-2,3-dihydro-1,4-benzoxazine-4-carboxylic acid p-tolyl ester], for which the concentration for half-maximal inhibition (IC50) came to 0.004 µM.
To `O=C1NC(=S)SC1=Cc1ccc2c(c1)N(C(=O)Cc1ccccc1)CCO2` [Example 19, 5-(4-Phenylacetyl-3,4-dihydro-2H-1,4-benzoxazin-6-ylmethylene)-2-thioxo-thiazolidin-4-one] belongs 0.055 µM; to `COc1ccc(CC(=O)N2CCOc3ccc(C=C4SC(=S)NC4=O)cc32)cc1OC` [Example 20, 5-{4-[2-(3,4-Dimethoxy-phenyl)-acetyl]-3,4-dihydro-2H-1,4-benzoxazin-6-ylmethylene}-2-thioxo-thiazolidin-4-one], 0.073 µM; to `COc1cccc(C(=O)N2CCOc3ccc(C=C4SC(=S)NC4=O)cc32)c1` [Example 21, 5-[4-(3-Methoxy-benzoyl)-3,4-dihydro-2H-1,4-benzoxazin-6-ylmethylene]-2-thioxo-thiazolidin-4-one], 0.1 µM.
On to `COc1cc(C(=O)N2CCOc3ccc(C=C4SC(=S)NC4=O)cc32)cc(OC)c1OC` [Example 22, 2-Thioxo-5-[4-(3,4,5-trimethoxy-benzoyl)-3,4-dihydro-2H-1,4-benzoxazin-6-ylmethylene]-thiazolidin-4-one], for which the IC50 is 4 µM.
Take `Cc1cccc(C(=O)N2CCOc3ccc(C=C4SC(=S)NC4=O)cc32)c1` [Example 23, 5-[4-(3-Methyl-benzoyl)-3,4-dihydro-2H-1,4-benzoxazin-6-ylmethylene]-2-thioxo-thiazolidin-4-one]: the 50% inhibitory concentration (IC50) stood at 0.101 µM.
As to `O=C1NC(=S)SC1=Cc1ccc2c(c1)N(C(=O)c1ccc(-c3ccccc3)cc1)CCO2` [Example 24, 5-[4-(Biphenyl-4-carbonyl)-3,4-dihydro-2H-1,4-benzoxazin-6-ylmethylene]-2-thioxo-thiazolidin-4-one], the IC50 was 0.56 µM.
In the case of `CC(C)(C)c1ccc(C(=O)N2CCOc3ccc(C=C4SC(=S)NC4=O)cc32)cc1` [Example 25, 5-[4-(4-tert-Butyl-benzoyl)-3,4-dihydro-2H-1,4-benzoxazin-6-ylmethylene]-2-thioxo-thiazolidin-4-one] it was 0.245 µM.
`CCc1ccc(C(=O)N2CCOc3ccc(C=C4SC(=S)NC4=O)cc32)cc1` [Example 26, 5-[4-(4-Ethyl-benzoyl)-3,4-dihydro-2H-1,4-benzoxazin-6-ylmethylene]-2-thioxo-thiazolidin-4-one]: the IC50 came out at 0.545 µM.
With `CCCCCCc1ccc(C(=O)N2CCOc3ccc(C=C4SC(=S)NC4=O)cc32)cc1` [Example 27, 5-[4-(4-Hexyl-benzoyl)-3,4-dihydro-2H-1,4-benzoxazin-6-ylmethylene]-2-thioxo-thiazolidin-4-one], the half-maximal inhibitory concentration (IC50) was found to be 2.02 µM.
In the case of `N#Cc1ccc(C(=O)N2CCOc3ccc(C=C4SC(=S)NC4=O)cc32)cc1` [Example 28, 4-[6-(4-Oxo-2-thioxo-thiazolidin-5-ylidenemethyl)-2,3-dihydro-1,4-benzoxazine-4-carbonyl]-benzonitrile] it was 0.385 µM; in that of `O=C1NC(=S)SC1=Cc1ccc2c(c1)N(C(=O)c1ccc3ccccc3c1)CCO2` [Example 29, 5-[4-(Naphthalene-2-carbonyl)-3,4-dihydro-2H-1,4-benzoxazin-6-ylmethylene]-2-thioxo-thiazolidin-4-one], 0.57 µM; in that of `CCC(C(=O)N1CCOc2ccc(C=C3SC(=S)NC3=O)cc21)c1ccccc1` (stereo not drawn) [Example 30, 5-[4-(2-Phenyl-butyryl)-3,4-dihydro-2H-1,4-benzoxazin-6-ylmethylene]-2-thioxo-thiazolidin-4-one], 0.735 µM.
In the case of `CC(C)C(=O)N1CCOc2ccc(C=C3SC(=S)NC3=O)cc21` [Example 31, 5-(4-Isobutyryl-3,4-dihydro-2H-1,4-benzoxazin-6-ylmethylene)-2-thioxo-thiazolidin-4-one] it was 0.009 µM; in that of `O=C1NC(=S)SC1=Cc1ccc2c(c1)N(C(=O)C1CC1)CCO2` [Example 32, 5-(4-Cyclopropanecarbonyl-3,4-dihydro-2H-1,4-benzoxazin-6-ylmethylene)-2-thioxo-thiazolidin-4-one], 4 µM.
To `O=C1NC(=S)SC1=Cc1ccc2c(c1)N(C(=O)C1CCCC1)CCO2` [Example 33, 5-(4-Cyclopentanecarbonyl-3,4-dihydro-2H-1,4-benzoxazin-6-ylmethylene)-2-thioxo-thiazolidin-4-one] belongs 0.014 µM; to `CCCCCCC(=O)N1CCOc2ccc(C=C3SC(=S)NC3=O)cc21` [Example 34, 5-(4-Heptanoyl-3,4-dihydro-2H-1,4-benzoxazin-6-ylmethylene)-2-thioxo-thiazolidin-4-one], 0.004 µM.
`O=C1NC(=S)SC1=Cc1ccc2c(c1)N(C(=O)Cc1cccs1)CCO2` [Example 35, 5-[4-(2-Thiophen-2-yl-acetyl)-3,4-dihydro-2H-1,4-benzoxazin-6-ylmethylene]-2-thioxo-thiazolidin-4-one]: the IC50 amounted to 0.036 µM.
To `O=C1NC(=S)SC1=Cc1ccc2c(c1)N(C(=O)CCC1CCCC1)CCO2` [Example 36, 5-[4-(3-Cyclopentyl-propionyl)-3,4-dihydro-2H-1,4-benzoxazin-6-ylmethylene]-2-thioxo-thiazolidin-4-one] belongs 0.005 µM.
To `O=C1NC(=S)SC1=Cc1ccc2c(c1)N(C(=O)C=Cc1ccccc1)CCO2` [Example 37, 5-[4-(3-Phenyl-acryloyl)-3,4-dihydro-2H-1,4-benzoxazin-6-ylmethylene]-2-thioxo-thiazolidin-4-one] belongs 0.007 µM.
Take `O=C1NC(=S)SC1=Cc1ccc2c(c1)N(C(=O)COc1ccccc1)CCO2` [Example 38, 5-[4-(2-Phenoxy-acetyl)-3,4-dihydro-2H-1,4-benzoxazin-6-ylmethylene]-2-thioxo-thiazolidin-4-one]: the concentration for half-maximal inhibition (IC50) came to 0.025 µM.
In the case of `O=C1NC(=S)SC1=Cc1ccc2c(c1)N(C(=O)COCc1ccccc1)CCO2` [Example 39, 5-[4-(2-Benzyloxy-acetyl)-3,4-dihydro-2H-1,4-benzoxazin-6-ylmethylene]-2-thioxo-thiazolidin-4-one] it was 0.014 µM.

The IC50 is the concentration needed to halve the response being measured.
